In US11708344B2, “Flavone derivatives for the treatment and prophylaxis of hepatitis B virus disease” (Hoffmann-La Roche Inc., priority 2018, dated 2023):

How the values were obtained:
[1] = tested on: HBeAg (surrogate marker for cccDNA) in HepDES19 cells; assay: Engineered HepDES19 primary screen assay (HBeAg ELISA); type: cell-based, HBV; details: Hepatitis B virus, HepDES19, 120 h, read-out: IC50 (HBeAg level, HepDES19 primary screen assay), HepDES19 cells, 5 days compound incubation, HBeAg ELISA
Procedure, shortened: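 HepDES19 cells were induced by Tet withdrawal for 8 days, then treated with half-log compound dilutions (1% DMSO final) for 5 days at 37 °C. HBeAg was measured by ELISA as the cccDNA surrogate, viability by CCK-8, and IC50 from a 4-parameter logistic fit.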

[2] = Human microsome stability assay; type: in vitro ADME; details: human liver microsomes, 1 μM test compound, 0.5 mg/mL microsomal protein, 37° C., pH 7.4, 0-30 minutes
Procedure, shortened: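 Compound (1 μM) incubated at 37 °C with human liver microsomes (0.5 mg/mL protein) in 100 mM potassium phosphate, pH 7.4, after 10 min preincubation; started with NADPH regenerating system. Sampled at 0–30 min, quenched with cold ACN; remaining parent quantified by LC-MS/MS, with no-NADPH controls.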

Compound	IC50 [1] [µM]	Clearance of Human microsome [2] [mL/min/kg]
COc1cc(-c2cc(=O)c3cccc(Cl)c3o2)c(O[C@H]2C[C@@H](C(=O)NS(C)(=O)=O)C2)cc1Br [Example B053-A, Cis-3-[5-bromo-2-(8-chloro-4-oxo-chromen-2-yl)-4-methoxy-phenoxy]-N-methylsulfonyl-cyclobutanecarboxamide]	3.36	6.15
COc1ccc(OCCOC2CC(C(=O)O)C2)c(-c2cc(=O)c3cccc(Cl)c3o2)c1 (centres unmarked) [Example C060, 3-[2-[2-(8-chloro-4-oxo-chromen-2-yl)-4-methoxy-phenoxy]ethoxy]cyclobutanecarboxylic acid]	9.81	6.15
Cc1ccc(-c2cc(=O)c3cccc(Cl)c3o2)c(OCCO[C@H]2C[C@H](C(=O)O)C2)c1 [Example C038-B, Trans-3-[2-[2-(8-chloro-4-oxo-chromen-2-yl)-5-methyl-phenoxy]ethoxy]cyclobutanecarboxylic acid]	1.53	6.15
O=C(O)CCOc1cc(C(F)(F)F)ccc1-c1oc2c(Cl)cccc2c(=O)c1O [Example A046, 3-[2-(8-chloro-3-hydroxy-4-oxo-chromen-2-yl)-5-(trifluoromethyl)phenoxy]propanoic acid]	7.86	6.15
CC(CCOCC(=O)O)Oc1cc(C(F)(F)F)ccc1-c1cc(=O)c2cccc(Cl)c2o1 (centres unmarked) [Example C024, 2-[3-[2-(8-chloro-4-oxo-chromen-2-yl)-5-(trifluoromethyl)phenoxy]butoxy]acetic acid]	0.909	6.15
Cc1cc(-c2cc(=O)c3cccc(Cl)c3o2)c(OCC(=O)N2CCC[C@@H]2C(=O)O)cc1Br [Example A079, (2R)-1-[2-[5-bromo-2-(8-chloro-4-oxo-chromen-2-yl)-4-methyl-phenoxy]acetyl]pyrrolidine-2-carboxylic acid]	19	6.6
CCOc1ccc(-c2cc(=O)c3c(C(F)(F)F)ccc(Cl)c3o2)c(OCCO[C@H]2C[C@@H](C(=O)O)C2)c1 [Example C095, cis-3-[2-[2-[8-chloro-4-oxo-5-(trifluoromethyl)chromen-2-yl]-5-ethoxy-phenoxy]ethoxy]cyclobutanecarboxylic acid]	3.29	9.62
COc1cc(-c2cc(=O)c3cccc(Cl)c3o2)c(OCCCC(=O)O)cc1Br [Example A058, 4-[5-bromo-2-(8-chloro-4-oxo-chromen-2-yl)-4-methoxy-phenoxy]butanoic acid]	0.549	6.15
COc1cc(OC2CC(C(=O)NS(C)(=O)=O)C2)c(-c2cc(=O)c3cccc(Cl)c3o2)cc1OC (centres unmarked) [Example B057, 3-[2-(8-chloro-4-oxo-chromen-2-yl)-4,5-dimethoxy-phenoxy]-N-methylsulfonyl-cyclobutanecarboxamide]	1.08	6.15
CCc1ccc(-c2cc(=O)c3cccc(Cl)c3o2)c(O[C@H]2C[C@H](C(=O)O)C2)c1 [Example B019-B, Trans-3-[2-(8-chloro-4-oxo-chromen-2-yl)-5-ethyl-phenoxy]cyclobutanecarboxylic acid]	3.63	8.92
Cc1ccc(-c2cc(=O)c3cccc(Cl)c3o2)c(OCC(=O)N2CCC[C@H]2C(=O)NS(C)(=O)=O)c1 [Example A093, (2S)-1-[2-[2-(8-chloro-4-oxo-chromen-2-yl)-5-methyl-phenoxy]acetyl]-N-methylsulfonyl-pyrrolidine-2-carboxamide]	1.32	6.15
CS(=O)(=O)NC(=O)[C@H]1C[C@H](Oc2cc(OC(F)(F)F)ccc2-c2cc(=O)c3cccc(Cl)c3o2)C1 [Example B047-B, Trans-3-[2-(8-chloro-4-oxo-chromen-2-yl)-5-(trifluoromethoxy)phenoxy]-N-methylsulfonyl-cyclobutanecarboxamide]	3.76	6.15
COc1ccc2c(=O)cc(-c3ccc(C(F)(F)F)cc3OCCC(=O)O)oc2c1Cl [Example A032, 3-[2-(8-chloro-7-methoxy-4-oxo-chromen-2-yl)-5-(trifluoromethyl)phenoxy]propanoic acid]	13	6.15
O=c1cc(-c2ccccc2OCCO[C@H]2C[C@H](C(=O)O)C2)oc2c(C(F)(F)F)cccc12 [Example C047-B, Trans-3-[2-[2-[4-oxo-8-(trifluoromethyl)chromen-2-yl]phenoxy]ethoxy]cyclobutanecarboxylic acid]	14	6.15
Cc1cc(-c2cc(=O)c3cccc(Cl)c3o2)c(OCC(=O)N2CC[C@@H](O)C2)cc1Br [Example A089, 2-[4-bromo-2-[2-[(3R)-3-hydroxypyrrolidin-1-yl]-2-oxo-ethoxy]-5-methyl-phenyl]-8-chloro-chromen-4-one]	11.9	6.69
CS(=O)(=O)NC(=O)[C@H]1C[C@@H](Oc2cc(Br)ccc2-c2cc(=O)c3cccc(Cl)c3o2)C1 [Example B044-A, cis-3-[5-bromo-2-(8-chloro-4-oxo-chromen-2-yl)phenoxy]-N-methylsulfonyl-cyclobutanecarboxamide]	4.62	6.15
O=C(O)[C@@H]1C[C@H](Oc2cc(Br)ccc2-c2cc(=O)c3cccc(Cl)c3o2)CN1C(=O)c1ccccc1 [Example B086]	4.89	6.15
CS(=O)(=O)NC(=O)[C@H]1C[C@H](Oc2cc(Br)ccc2-c2cc(=O)c3cccc(Cl)c3o2)C1 [Example B044-B, trans-3-[5-bromo-2-(8-chloro-4-oxo-chromen-2-yl)phenoxy]-N-methylsulfonyl-cyclobutanecarboxamide]	3.72	6.15
O=c1cc(-c2ccc(OC(F)(F)F)cc2OCCO[C@H]2C[C@@H](C(=O)O)C2)oc2c(Cl)cccc12 [Example C052-A, Cis-3-[2-[2-(8-chloro-4-oxo-chromen-2-yl)-5-(trifluoromethoxy)phenoxy]ethoxy]cyclobutanecarboxylic acid]	5.99	9.08
NS(=O)(=O)CCCOc1cc(C(F)(F)F)ccc1-c1cc(=O)c2cccc(Cl)c2o1 [Example B072, 3-[2-(8-chloro-4-oxo-chromen-2-yl)-5-(trifluoromethyl)phenoxy]propane-1-sulfonamide]	0.95	8.89
COC(=O)C1CC(OCCOc2cc(Br)ccc2-c2cc(=O)c3cccc(Cl)c3o2)C1 (centres unmarked) [Example C003a, methyl 3-[2-[5-bromo-2-(8-chloro-4-oxo-chromen-2-yl)phenoxy]ethoxy]cyclobutanecarboxylate]	0.4	6.15
O=c1cc(-c2ccc(C(F)(F)F)cc2O[C@H]2C[C@@H](C(=O)NS(=O)(=O)C3CC3)C2)oc2c(Cl)cccc12 [Example B043-A, cis-3-[2-(8-chloro-4-oxo-chromen-2-yl)-5-(trifluoromethyl)phenoxy]-N-cyclopropylsulfonyl-cyclobutanecarboxamide]	1.4	6.15
Cc1ccc(OCCO[C@H]2C[C@H](C(=O)O)C2)c(-c2cc(=O)c3cccc(Cl)c3o2)c1 [Example C050-B, Trans-3-[2-[2-(8-chloro-4-oxo-chromen-2-yl)-4-methyl-phenoxy]ethoxy]cyclobutanecarboxylic acid]	0.137	6.15
COc1cc(OCCO[C@H]2C[C@@H](C(=O)O)C2)c(-c2cc(=O)c3cccc(Cl)c3o2)cc1OC(F)(F)F [Example C089, Cis-3-[2-[2-(8-chloro-4-oxo-chromen-2-yl)-5-methoxy-4-(trifluoromethoxy)phenoxy]ethoxy]cyclobutanecarboxylic acid]	3.78	6.15
O=c1cc(-c2c(F)cc(Br)cc2OCCO[C@H]2C[C@@H](C(=O)O)C2)oc2c(Cl)cccc12 [Example C071, Cis-3-[2-[5-bromo-2-(8-chloro-4-oxo-chromen-2-yl)-3-fluoro-phenoxy]ethoxy]cyclobutanecarboxylic acid]	10.8	6.15
COc1cc(OCCC(=O)NS(=O)(=O)C2CC2)c(-c2cc(=O)c3cccc(Cl)c3o2)cc1OC [Example A085, 3-[2-(8-chloro-4-oxo-chromen-2-yl)-4,5-dimethoxy-phenoxy]-N-cyclopropylsulfonyl-propanamide]	4.92	6.15
O=c1cc(-c2ccc(F)cc2OCCO[C@H]2C[C@H](C(=O)O)C2)oc2c(Cl)cc(F)cc12 [Example C045-B, Trans-3-[2-[2-(8-chloro-6-fluoro-4-oxo-chromen-2-yl)-5-fluoro-phenoxy]ethoxy]cyclobutanecarboxylic acid]	2.88	9.43
O=C(O)CCCOc1cc(C(F)(F)F)ccc1-c1cc(=O)c2c(O)ccc(Cl)c2o1 [Example B041, 4-[2-(8-chloro-5-hydroxy-4-oxo-chromen-2-yl)-5-(trifluoromethyl)phenoxy]butanoic acid]	0.289	6.15
